The values below come from patent US20230219939A1, “N-(1-CYANO-PYRROLIDIN-3-YL)-5-(3-(TRIFLUOROMETHYL)PHENYL)OXAZOLE-2-CARBOXAMIDE DERIVATIVES AND THE CORRESPONDING OXADIAZOLE DERIVATIVES AS USP30 INHIBITORS FOR THE TREATMENT OF MITOCHONDRIAL DYSFUNCTION” (MISSION THERAPEUTICS LIMITED, priority 2020, published 2023).

Usually pIC50 stands for the IC50 on a negative log10 scale, so that one unit is a factor of ten. What is called IC50 is the midpoint of a concentration-inhibition curve. The Papp A→B is how fast a substance crosses the layer from the apical side.

pIC50: −log10 of the molar value. “And” between values parts separate entries of the source, which are not always exact repeats. Equal values may be shown once. Read-outs that look alike come from different tables or passages of the source.

In data set [1] the target is T1, USP30 (Homo sapiens, UniProt Q70CQ3).
T1 construct: purchased Boston Biochem E582
T1 sequence (Q70CQ3 57-517 limits assumed): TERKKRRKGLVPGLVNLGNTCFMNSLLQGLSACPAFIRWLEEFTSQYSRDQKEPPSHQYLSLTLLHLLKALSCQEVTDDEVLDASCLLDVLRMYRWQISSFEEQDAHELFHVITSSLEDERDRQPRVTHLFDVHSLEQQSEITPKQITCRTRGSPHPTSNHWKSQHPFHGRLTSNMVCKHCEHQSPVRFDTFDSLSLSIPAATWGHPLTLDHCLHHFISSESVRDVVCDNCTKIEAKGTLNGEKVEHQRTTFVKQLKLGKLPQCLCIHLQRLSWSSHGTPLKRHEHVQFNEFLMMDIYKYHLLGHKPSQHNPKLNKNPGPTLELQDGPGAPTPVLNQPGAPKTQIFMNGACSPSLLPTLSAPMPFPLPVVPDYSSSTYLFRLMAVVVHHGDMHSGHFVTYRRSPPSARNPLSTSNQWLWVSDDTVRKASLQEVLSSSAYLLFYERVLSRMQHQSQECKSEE
Description: USP30 biochemical IC50 assay (fluorescence polarisation). How it is done: Dilution plates were prepared at 21 times the final concentration (2100 μM for a final concentration of 100 μM) in 50% DMSO in a 96-well polypropylene V-bottom plate (Greiner #651201). A typical 8-point dilution series would be 100, 30, 10, 3, 1, 0.3, 0.1, 0.03 μM final. Reactions were performed in duplicate in black 384 well plates (small volume, Greiner 784076) in a final reaction volume of 21 μl. Either 1 μl of 50% DMSO or diluted compound was added to the plate. USP30 (Boston Biochem #E582) was diluted in reaction buffer (40 mM Tris, pH 7.5, 0.005% Tween 20, 0.5 mg/ml BSA, 5 mM beta-mercaptoethanol) to achieve a final assay concentration of 4 nM, and 10 μl of diluted USP30 was added to the compound. Enzyme and compound were incubated for 30 min at room temp. Reactions were initiated by the addition of 50 nM of TAMRA labelled peptide linked to ubiquitin via an iso-peptide bond as fluorescence polarisation substrate. Reactions were read immediately after addition of substrate and following a 2-hour incubation at room temperature. Readings were performed on a Pherastar Plus (BMG Labtech). λ Excitation 540 nm; λ Emission 590 nm.
A general note: In fluorescence polarisation assays a small probe gives low polarisation when free and higher when bound to something large.

In data set [2] the target is Cathepsin B (Homo sapiens, UniProt P07858). Description: Cathepsin B IC50. The format is biochemical.
Data set [3] deals with mouse hepatocytes. Description: Hepatocyte Cl mouse. The format is in vitro ADME. Here is the method: Hep Cl mouse: in vitro hepatocyte clearance in mouse cells.
Clu: in vitro clearance. Clu as defined here is the scaled clearance, in turn calculated from the intrinsic clearance. The intrinsic clearance is the predicted clearance due to hepatic metabolic reactions, determined from incubation of a compound in a hepatocyte preparation.

Data set [4] deals with T2, Cathepsin K (Homo sapiens, UniProt P43235).
T2 sequence (P43235 115-329): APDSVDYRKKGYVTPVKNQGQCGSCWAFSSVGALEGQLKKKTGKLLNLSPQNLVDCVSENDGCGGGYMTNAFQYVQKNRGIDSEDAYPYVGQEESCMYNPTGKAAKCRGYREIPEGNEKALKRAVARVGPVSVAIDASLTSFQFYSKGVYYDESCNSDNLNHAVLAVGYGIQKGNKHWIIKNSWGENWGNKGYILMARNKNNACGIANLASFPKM
Description: Cathepsin K IC50. The format is biochemical.

Data set [5] deals with USP2, USP6, USP10, USP16, USP21, USP22, USP25, USP28. The data set can be described thus: DUB selectivity panel IC50. It is filed as biochemical.
The nature of data set [6]: FaSSIF solubility. The format is physicochemical. Conditions: pH 6.5, simulated intestinal fluid fasted state. The text has this:
FaSSIF: simulated intestinal fluid in fasted state measured at pH 6.5.

Data set [7] has as its target Cathepsin S (Homo sapiens, UniProt P25774). The data set can be described thus: Cathepsin S IC50. The format is biochemical.
Data set [8] addresses Cathepsin V (Homo sapiens, UniProt O60911). The data set can be described thus: Cathepsin V IC50. It is filed as biochemical.
Data set [9] can be described thus: Log D. Conditions: pH 7.4; read-out: Log D measured at pH 7.4. The format is physicochemical. The source says:
log D: distribution co-efficient; lipophilicity measurement.

Data set [10] deals with Cathepsins B, K, L, S, V. Description: Cathepsin panel IC50 (summary over B, K, L, S, V). The format is biochemical.
The nature of data set [11]: Brain microdialysis PK 30 mg/kg PO mouse. The format is in vivo. The source says: Kpuu is the ratio of unbound drug in brain to unbound drug in plasma and may be indicative of potential for treating peripheral and/or CNS indications.
In data set [12] the target is Cathepsin L (Homo sapiens, UniProt P07711). The data set can be described thus: Cathepsin L IC50. The format is biochemical. The conditions noted are these: read-out: Cathepsin IC50 (μM) Cathepsin L.
Chain of Cathepsin L (P07711 114-333, species assumed): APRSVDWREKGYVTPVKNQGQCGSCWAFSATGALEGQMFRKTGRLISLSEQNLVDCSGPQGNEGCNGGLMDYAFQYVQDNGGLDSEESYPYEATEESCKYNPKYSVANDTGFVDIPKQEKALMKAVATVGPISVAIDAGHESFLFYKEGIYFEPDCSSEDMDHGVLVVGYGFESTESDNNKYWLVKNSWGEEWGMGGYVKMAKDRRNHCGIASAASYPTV
Data set [13] concerns P-glycoprotein (human MDR1). Description: MDR1-MDCK flux assay. It is filed as in vitro ADME, Canine. Conditions: dog, read-out: MDR1-MDCK Effective efflux ratio. The source says: The treatment of CNS disorders, including Alzheimer's disease, Parkinson's disease, and other disorders described herein, requires drug molecules to target the brain, which requires adequate penetration of the blood brain barrier. […] The probability that a compound can cross the blood brain barrier may be measured by an in vitro flux assay utilizing a MDR1-MDCK cell monolayer (Madin-Darby Canine Kidney cells transfected with MDR-1 resulting in overexpression of the human efflux transporter P-glycoprotein). Additionally, exposure may also be measured directly in brain and plasma using in vivo animal models.
MDR1-MDCK (Madin-Darby Canine Kidney cell monolayer) (in vitro) flux assay.

Data set [14] is described as follows: WT-MDCK (wild-type) in vitro flux. The format is in vitro ADME. The conditions noted are these: dog. The source says:
WT-MDCK (wild-type) in vitro flux.

A short description of data set [15]: PK mouse 10 mg/kg PO. The format is in vivo. The source says: Oral F: Oral bioavailability.
Data set [16] in a line: Plasma binding, equilibrium dialysis. It is filed as in vitro ADME. The conditions noted are these: mouse plasma; read-out: Binding Mouse Plasma fu, p. The source says:
Plasma fu,p: The free fraction of a compound in plasma preparation determined by in vitro equilibrium dialysis. It is understood that only unbound (free) compound is capable of engaging with the target.
Background: In equilibrium dialysis free small molecules cross a membrane that holds back macromolecules.

Chain of Cathepsin S (P25774 115-331, species assumed): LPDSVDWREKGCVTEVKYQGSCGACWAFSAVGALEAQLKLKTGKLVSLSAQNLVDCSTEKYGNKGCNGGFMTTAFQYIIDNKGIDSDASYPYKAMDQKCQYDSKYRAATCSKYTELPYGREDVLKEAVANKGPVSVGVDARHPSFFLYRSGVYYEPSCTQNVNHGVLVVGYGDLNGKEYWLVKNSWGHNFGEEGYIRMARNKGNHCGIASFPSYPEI
Chain of Cathepsin V (O60911 114-334, species assumed): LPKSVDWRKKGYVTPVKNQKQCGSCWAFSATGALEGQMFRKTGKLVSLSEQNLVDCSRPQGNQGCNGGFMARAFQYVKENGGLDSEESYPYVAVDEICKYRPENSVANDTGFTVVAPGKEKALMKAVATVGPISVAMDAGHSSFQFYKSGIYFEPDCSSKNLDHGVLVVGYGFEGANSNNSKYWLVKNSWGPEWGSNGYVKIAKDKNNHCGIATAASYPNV

As for `COC[C@@H]1C[C@@H](NC(=O)c2ncc(-c3cccc(C(F)(F)F)c3)o2)CN1C#N` [Example 1, N-((3R,5S)-1-Cyano-5-(methoxymethyl)-pyrrolidin-3-yl)-5-(3-(trifluoromethyl)phenyl)oxazole-2-carboxamide], the pIC50 in [1] (USP30 biochemical IC50 assay, read-out: USP30 IC50) was 8.05. Moreover, the half-maximal inhibitory concentration (IC50) was 0.009 µM and 0.004 to 0.033 µM in data set [1] (read-out: DUB IC50 (μM) USP30); 122 µM in data set [2]; 10.2 µM in [4]; 16 to 97.9 µM in data set [5] (range over the eight DUBs, read-out: DUB IC50 (μM) USP2, USP6, USP10, USP16, USP21, USP22, USP25, USP28); 138 µM in data set [7]; 105 µM in data set [8]. Further, the IC50 in [10] (range over the five cathepsins, read-out: Cathepsin IC50 (μM) B, K, L, S, V) was 10.2 to 138 µM; in data set [12] it was 30.4 µM. In addition, the “Hepatocyte Cl mouse Scaled Clu” value in data set [3] is 81 mL/min/kg. In addition, the “hepatocyte metabolic stability compared to Reference Examples A and B (in words)” value in [3] is “significantly improved hepatocyte metabolic stability”. Also, in [5], the “DUB selectivity preference for USP30 v 8 DUBs” value was over 1777. Besides, the “FaSSIF (μM) measured at pH 6.5” value in data set [6] is 200 μM. For the same molecule, the logD in [9] was 2.6. Further, the “Selectivity preference for USP30 v cathepsins” value in data set [10] was over 1133. In addition, the Kp uu in data set [11] (Brain microdialysis PK 30 mg/kg PO - mouse) was found to be 1.2. The “pre-frontal cortex Cmax, u/cell TOM20-Ub” value in data set [11] (Brain microdialysis PK 30 mg/kg PO mouse) is recorded as 23-fold. The efflux ratio in data set [13] came to 1.2; in data set [14] it was 0.8. In [14] (A-B), this molecule displayed a Papp A→B of 11.8 ×10⁻⁶ cm/s. The “Unbound plasma Cmax/TOM20-Ub cell potency” value in data set [15] (10 mg/kg PO dose - mouse) is 41-fold. Also, the bioavailability in data set [15] (plasma, po, mouse 10 mg/kg, read-out: Oral F (%)) was determined as 82%. For the same molecule, in data set [16], the fraction unbound was 0.12.
